What was measured:
[1] = biological target: T1, MetAP-2 in white blood cells (Rattus norvegicus, UniProt P38062); assay: MetAP-2 pharmacodynamic assay (ELISA of uninhibited MetAP-2 in white blood cell lysates of treated rats); assay type: in vivo; conditions: po, PG-PS arthritic rats, every other day, relative to the vehicle-treated group, read-out: MetAP-2 in white blood cells inhibited; for inhibition at 1 mg/kg: 1 mg/kg orally, pooled wbc after conclusion of study
T1 construct: white blood cells from animals of each study group were pooled and cell lysates were prepared; from tissue; host or cells: white blood cells of female Lewis rats (PG-PS arthritis model)
Method: After completion of the study, wbc from rats of different groups that had been treated with vehicle (p.o., qod), dex (1 mg/kg, p.o., qod) or MetAP-2 inhibitor (1, 5, or 10 mg/kg, p.o., qod) were pooled, lysed, and the amount of MetAP-2 inhibited in wbc lysates was determined by the MetAP-2 pharmacodynamic assay. All values are expressed as percentage of the amount of MetAP-2 inhibited compared with vehicle-treated rats. The amount of uninhibited MetAP-2 (=100%) in vehicle-treated rats in this assay corresponded to 41 ng MetAP-2 per mg wbc protein. The detection limit was 0.47 ng MetAP-2 per mg wbc protein. Columns: 10 rats per group, except for naive rats treated with vehicle (n=4).
(§1) Rat model of Peptidoglycan-Polysaccharide (PG-PS) induced arthritis. Female Lewis rats (109-130 g) were received from Charles River Laboratories. Food and water were available ad libitum. PG-PS (25 mg/kg) was injected intraperitoneally on day 1 and responding animals were randomized into treatment groups on day 14. Vehicle (11% HPCD in PBS), dexamethasone and a methionine aminopeptidase 2 inhibitor (1, 5, and 10 mg/kg) were administered orally, every other day. Paw swelling was monitored using a plethysmometer (Stoelting Co., Woodale, Ill.) according to instrument specifications. The volumes of the two hind paws were measured and averaged on day 1, 4, 6, 8, 10, 13, 15, 17, 20, 22, 23, 27, 29 and 31. Ten animals were assigned to each group except the vehicle group and animals which received no PG-PS, but 10 mg/kg of the methionine aminopeptidase 2 inhibitor (n=4). The methionine aminopeptidase 2 inhibitor comprising the structure structure (1-Carbamoyl-2-methyl-propyl)-carbamic acid-(3R, 4S, 5S, 6R )-5-methoxy-4-[(2R, 3R)-2-methyl-3-(3-methyl-but-2-enyl)-oxiranyl]-1-oxa-spiro[2.5]oct-6-yl ester was used in the present studies.
MetAP-2 pharmacodynamic assay. The MetAP-2 assay is an ELISA assay that measures the amount of uninhibited MetAP-2 in cells or tissues which has not been derivitized by prior treatment with a methionine aminopeptidase 2 inhibitor and/or a glucocorticoid. The assay was performed as described in, for example, Bernier, S. G., et al. (2004) Proc. Natl. Acad. Sci. USA 101: 10768-10773 and Bernier, S. G., et al. (2005) J. Cell. Biochem. 95:1191-1203, the entire contents of each of which are incorporated herein by reference. Briefly, white blood cells from animals of each study group were pooled and cell lysates were prepared as described in, for example, Bernier, S. G., et al. (2004) Proc. Natl. Acad. Sci. USA 101: 10768-10773 and Bernier, S. G., et al. (2005) J. Cell. Biochem. 95:1191-1203. […] After 1 hour, the plates were washed, and the immobilized biotinylated MetAP-2-inhibitor complex was then detected with an anti-MetAP-2 antibody, CM33 (0.5 μg/ml). […]

[2] = test system: Peptidoglycan-Polysaccharide (PG-PS) induced arthritis; assay: Rat model of PG-PS induced arthritis, paw swelling of the hind limbs; assay type: in vivo; conditions: 1, 5 and 10 mg/kg orally, every other day, day 15 to day 31; compared to vehicle-treated animals
Method: as §1

T1 sequence (P38062 whole entry): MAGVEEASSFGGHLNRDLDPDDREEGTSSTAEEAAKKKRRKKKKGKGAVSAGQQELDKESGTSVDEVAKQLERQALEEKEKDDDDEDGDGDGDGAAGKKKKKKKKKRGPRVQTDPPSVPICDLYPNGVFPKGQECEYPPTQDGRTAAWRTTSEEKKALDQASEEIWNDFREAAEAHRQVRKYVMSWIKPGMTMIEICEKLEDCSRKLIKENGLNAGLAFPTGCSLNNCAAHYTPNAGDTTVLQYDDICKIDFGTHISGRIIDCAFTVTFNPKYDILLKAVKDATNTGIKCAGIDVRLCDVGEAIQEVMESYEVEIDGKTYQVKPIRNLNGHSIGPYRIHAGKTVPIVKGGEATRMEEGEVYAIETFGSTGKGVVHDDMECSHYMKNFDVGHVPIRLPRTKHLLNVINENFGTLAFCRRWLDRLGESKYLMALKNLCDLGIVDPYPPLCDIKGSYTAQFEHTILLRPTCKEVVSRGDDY

inhibition at 1 mg/kg [1] [%] | inhibition at 5 mg/kg ([1]; 5 mg/kg orally) [%] | inhibition at 10 mg/kg ([1]; 10 mg/kg orally) [%] | SMILES | joint swelling and inflammation, measured by paw swelling of the hind limbs [2]
≥ 90 |  |  | C[C@@H]1C[C@H]2[C@@H]3CCC4=CC(=O)C=C[C@]4(C)[C@@]3(F)[C@@H](O)C[C@]2(C)[C@@]1(O)C(=O)CO [dexamethasone, reference compound] | 
≥ 60 | ≥ 95 | ≥ 95 | CO[C@@H]1[C@H](OC(=O)N[C@@H](C(N)=O)C(C)C)CC[C@]2(CO2)[C@H]1[C@@]1(C)O[C@@H]1CC=C(C)C [methionine aminopeptidase 2 inhibitor, (1-Carbamoyl-2-methyl-propyl)-carbamic acid-(3R, 4S, 5S, 6R )-5-methoxy-4-[(2R, 3R)-2-methyl-3-(3-methyl-but-2-enyl)-oxiranyl]-1-oxa-spiro[2.5]oct-6-yl ester] | significant amelioration of joint swelling and inflammation

From patent US20070254303A1, “Methods for assessing the efficacy of treatment with a glucocorticoid” (Praecis Pharmaceuticals Incorporated, priority 2006, published 2007)
